According to US11840527B2, “Non-fused thiophene derivatives and their uses” (ENYO PHARMA, priority 2018, dated 2023):
pEC50, pIC50: −log10 of the molar value.

Experiments:
[1] = tested on: H1N1 (influenza A/New Caledonia/20/99); assay: Antiviral effect on A549 cells infected with H1N1; format: cell-based, H1N1 A/New Caledonia/20/99 virus; settings: Influenza A virus, MOI 0.1, 48 h post-infection, MUNANA neuraminidase readout
Outline: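 A549 cells dosed with test compounds over a concentration range and infected at once with clinical isolate H1N1 A/New Caledonia/20/99 (MOI 0.1) in DMEM with […] TPCK trypsin, 37 °C. At 48 h, supernatant neuraminidase activity measured with MUNANA substrate (1 h, 37 °C); 4-MU fluorescence at ex 365/em 450 nm.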

NFκB = NFκB reporter assay, TNFα stimulation of A549 reporter cells; format: cell-based; settings: Homo sapiens; A549 NFκB-NanoLuciferase reporter cells, 4 ng/ml TNFα, 6 hours
Text: Compounds of the present invention have been tested for their capacity to inhibit NFκB.
The NFκB reporter construct was made by cloning 5 NFκB responsive elements upstream of a NanoLuciferase reporter gene flanked by AAVS1 genomic sequences.
NFκB Responsive element fused with NanoLuciferase and SV40 late Poly(A) signal was amplified from pNL3.2-NFκB-Nluc (Promega) using NFκB-NLUC-F and NFκB-NLUC-R primers and inserted by Infusion (TaKaRa) in AAVS1 SA-2A-puro-pA donor plasmid (Hockemeyer et al, Nat Biotechnol. 2009, 27, 851-7) digested by Sall. pCRISPR AAVS1-T2 expressing a guide RNA (gRNA) to target human AAVS1 (T2 target sequence) was constructed by inserting AAVS1-T2A hybridized primers in pLentiCRISPR v2-blast (Sanjana et al, Nat Methods. 2014, 11, 783-4) digested by Bsmb1.
A549 cells were transfected by the plasmids and puromycine selected for 5 days (1 μg mL-1). Then clones were obtained by limiting dilution and selected to maximize TNFα dependent NFkB-NanoLuciferase induction.
The reporter cells were seeded on a 96-well plate for overnight with DMEM including 10% FBS. Test compounds were added at varying concentrations. The cells then were treated with 4 ng/ml TNFα (Peprotech, ref E251) in DMEM+10% FBS. NanoGlo luciferase assay (Promega) was carried out 6 hours later. Luminescence was measured using a Spark 20M spectrofluorimeter (Tecan). Values were normalized to the luminescence measured in untreated cells.

[2] = target: T1, CISD1 Gene Product (mitoNEET) (Homo sapiens, UniProt Q9NZ45); assay: Stability of Fe-S cluster binding of purified NEET protein (absorbance 458 nm); format: biochemical; settings: for Residual cluster bound at end of experiment (Percentage Absorbance 458 nm at time zero): at 180 minutes, vehicle control 16%; for Residual cluster bound at end of experiment (Percentage Absorbance 458 nm at time zero) / Time (in minutes) to achieve 50% loss of bound cluster (Absorbance 458 nm): 60 μM compound; for Stabiliser of Fe—S cluster binding (time to 50% loss increased by more than 25% vs control): at the concentrations tested; for Time (in minutes) to achieve 50% loss of bound cluster (Absorbance 458 nm): pH 6, 37° C., 20 μM protein, run time 180 minutes, vehicle control 80
T1 sequence (Q9NZ45 33-108 limits assumed): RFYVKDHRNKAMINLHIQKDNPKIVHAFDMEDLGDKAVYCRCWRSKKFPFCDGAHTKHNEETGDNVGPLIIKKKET
Experimental: (§1) The modulator effect on the NEET proteins encoded by human CISD1, CISD2, and CISD3 genes by the compounds of the invention has been tested and is reported below. Particularly, the biochemical function of the NEET proteins is measured by the stability of Fe—S cluster binding of the purified NEET proteins.
(§2) The Fe—S cluster binding capacity of NEET proteins is known to be coordinated by four amino-acids in a stretch of 16 (three Cysteine and one Histidine). As the lability of the Fe—S cluster of NEET proteins is sensitive to the environment, cluster stability measurements are one of the measures of interactions of NEET proteins with small molecules and compounds. NEET protein/2Fe-2S cluster stability can be assessed by monitoring the decay in absorbance of its characteristic 458-nm peak (characteristic of the oxidized 2Fe-2S cluster) over time. Each NEET protein (mitoNEET, NAF-1 and Miner 2) was tested for its Fe—S binding in the absence or presence of a compound according to the invention (see table 3 below). The rate of cluster release (time in minutes to achieve 50% loss of bound Fe—S cluster) was compared for each NEET protein in the presence of one of the compounds of the invention (in a 1:3 protein:compound molar ratio) relative to each protein alone.
(§3) At pH 6, all the three NEET proteins (mitoNEET, NAF-1 and Miner 2) have a characteristic rate of loss of the bound Fe—S cluster that can be measured by the decrease of absorbance at wavelength 458 nm over time, using a spectrophotometer. Thus, Bis-Tris buffer (100 mM Bis-Tris pH6, 100 mM Nacl) was used at pH 6 to dilute either DMSO (Blank sample: Bis-Tris Buffer pH 6, 66 μM DMSO), DMSO and one of the three NEET proteins (Control sample: Bis-Tris Buffer pH 6, 66 μM DMSO, 20 μM purified NEET protein) or DMSO, one of the three NEET proteins and a compound of the invention (Test sample: Bis-Tris Buffer pH 6, 66 μM DMSO, 20 μM purified NEET protein, 60 μM compound of the invention).
(§4) A reaction mix containing DMSO diluted in the Bis-Tris Buffer with or without a compound of the invention was prepared. The purified NEET protein was the last component added to the reaction mix which was then aliquoted into 4 replicates in 96 wells plates. The absorbance at wavelength 458 nm was taken at 5 minutes intervals at 37° C. with a spectrofluorimeter. The assay run time for CISD2 gene product (NAF-1) was 500 minutes and 180 minutes for both the CISD 1 gene product (mitoNEET) and the CISD3 gene product (Miner 2).
(§5) In addition to time monitoring, residual bound Fe—S cluster to NEET protein was measured at the final point of the spectrometry assay for each Test sample and compared to the Control sample data (in parenthesis table 3). This residual binding is measured by the differential percentage between the absorbance 458 nm at time zero and the absorbance 458 nm at the end of the experiment (i.e. respectively 500 or 180 minutes as described hereabove), showing the percentage of NEET protein still able to bind Fe—S cluster.
(§6) Analysis of the absorbance enables the time for which 50% loss of bound Fe—S cluster is reached (i.e. a 50% absorbance decrease at 458 nm) for each Test sample and each Control sample (in parenthesis table 3) to be determined. The data are then compared to determine whether the compound of the invention stabilizes or destabilizes the NEET protein/Fe—S cluster binding.
(§7) Stabilisers of Fe—S cluster binding by the NEET proteins slow the release of bound Fe—S (i.e. increase the time needed to reach 50% Fe—S cluster bound loss by more than 25% for the Test sample compared to the Control sample). As illustrated by table 3, at the concentrations tested, stabilisers of CISD1 Gene Product (mitoNEET) are the compounds #9, #18, #26, #2, #1, and #42. Stabilisers of CISD2 Gene Product (NAF-1) are the compounds #2, #1, and #40. Stabilisers of CISD3 Gene Product (Miner2) are the compounds #9, #18, #26, #2, #1, and #42.

[3] = target: T2, CISD3 Gene Product (Miner2) (Homo sapiens, UniProt P0C7P0); assay: as above; format: biochemical; settings: for Residual cluster bound at end of experiment (Percentage Absorbance 458 nm at time zero): CISD3 gene product, at 180 minutes, vehicle control (DMSO) 11%; for Residual cluster bound at end of experiment (Percentage Absorbance 458 nm at time zero) / Time (in minutes) to achieve 50% loss of bound cluster (Absorbance 458 nm): 60 μM compound; for Stabiliser of Fe—S cluster binding (time to 50% loss increased by more than 25% vs control) / Time (in minutes) to achieve 50% loss of bound cluster (Absorbance 458 nm): Miner2; for Stabiliser of Fe—S cluster binding (time to 50% loss increased by more than 25% vs control): at the concentrations tested; for Time (in minutes) to achieve 50% loss of bound cluster (Absorbance 458 nm): pH 6, 37° C., 20 μM protein, run time 180 minutes, vehicle control 60
T2 sequence (P0C7P0 15-127): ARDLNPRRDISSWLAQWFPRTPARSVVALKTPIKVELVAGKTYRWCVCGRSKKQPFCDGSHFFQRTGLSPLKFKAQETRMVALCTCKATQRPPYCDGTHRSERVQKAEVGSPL
Experimental: as §1, §2, §3, §4, §5, §6, §7

[4] = target: T3, CISD2 Gene Product (NAF-1) (Homo sapiens, UniProt Q8N5K1); assay: as above; format: biochemical; settings: 60 μM compound; for Residual cluster bound at end of experiment (Percentage Absorbance 458 nm at time zero): at 500 minutes, vehicle control 3%; for Time (in minutes) to achieve 50% loss of bound cluster (Absorbance 458 nm): pH 6, 37° C., 20 μM protein, run time 500 minutes, vehicle control 310
T3 sequence (Q8N5K1 57-135 limits assumed): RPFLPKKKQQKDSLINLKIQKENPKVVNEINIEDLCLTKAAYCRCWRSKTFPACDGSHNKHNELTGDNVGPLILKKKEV
Experimental: as §1, §2, §3, §4, §5, §6, §7

| Structure (SMILES) | pIC50 [1] | pEC50 (NFκB) | Residual cluster bound at end of experiment (Percentage Absorbance 458 nm at time zero) [2] | Stabiliser of Fe—S cluster binding (time to 50% loss increased by more than 25% vs control) [2] | Time (in minutes) to achieve 50% loss of bound cluster (Absorbance 458 nm) [2] | Residual cluster bound at end of experiment (Percentage Absorbance 458 nm at time zero) [3] | Stabiliser of Fe—S cluster binding (time to 50% loss increased by more than 25% vs control) [3] | Time (in minutes) to achieve 50% loss of bound cluster (Absorbance 458 nm) [3] | Residual cluster bound at end of experiment (Percentage Absorbance 458 nm at time zero) [4] | Time (in minutes) to achieve 50% loss of bound cluster (Absorbance 458 nm) [4] |
| --- | --- | --- | --- | --- | --- | --- | --- | --- | --- | --- |
| O=C(Nc1scc(C2CC3CCC2C3)c1C(=O)O)c1ccccc1 (centres unmarked) [Compound #9, 2-Benzamido-4-norbornan-2-yl-thiophene-3-carboxylic acid] | 6.68 | 5.96 | 20% (16%) | stabilisers | 100 (80) minutes | 57% (11%) | Stabilisers | during 180 minutes | 17% (3%) | 370 (310) minutes |
| O=C(Nc1sc(Cl)c(C2CCCC2)c1C(=O)O)c1ccccc1 [Compound #18, 2-Benzamido-5-chloro-4-cyclopentyl-thiophene-3-carboxylic acid] | 7.19 | 5.96 | 52% (16%) | stabilisers | during 180 minutes | 69% (11%) | Stabilisers | during 180 minutes | 38% (3%) | 240 (310) minutes |
